Entries after “also recorded” stand apart in the source; their conditions may differ. Positions of bridges follow the written chain, without caps; N, C: chain ends. Non-standard residues stand in square brackets, D forms with d. Residues, ends and D or L forms follow the SMILES beside them. No end group written: not given here. 2Nal = N[C@@H](Cc1ccc2ccccc2c1)C(=O)O; Cit = NC(=O)NCCC[C@H](N)C(=O)O
How the values were obtained:
CXCR4 [1] = biological target: T1, CXCR4 (Homo sapiens, UniProt P61073); test: Competitive binding assay against biotin-labeled TN14003 on MDA-MB-231 cells (immunofluorescence); set-up: endogenous in cells; host or cells: MDA-MB-231; details: cells pre-incubated with compound
T1 sequence (P61073 whole entry): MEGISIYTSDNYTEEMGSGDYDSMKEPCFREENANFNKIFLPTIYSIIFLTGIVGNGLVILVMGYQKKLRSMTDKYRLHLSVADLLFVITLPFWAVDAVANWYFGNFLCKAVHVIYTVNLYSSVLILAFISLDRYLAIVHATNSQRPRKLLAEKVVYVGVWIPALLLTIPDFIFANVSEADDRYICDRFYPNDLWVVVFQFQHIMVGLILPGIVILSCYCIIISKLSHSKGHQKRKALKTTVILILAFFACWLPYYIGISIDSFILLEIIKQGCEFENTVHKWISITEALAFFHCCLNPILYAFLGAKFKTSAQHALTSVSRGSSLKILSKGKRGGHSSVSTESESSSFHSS
Description: FIG. 4A illustrates the structure of TN14003-Biotin. […] 20,000 cells of MDA-MB-231 were seeded in 8-well slide chamber two days before experiments. Various concentration of the selected compounds (10,100, and 1000 nM) were added to the separate wells, incubated for 10 minutes at room temperature, and the cells were fixed in 4% of ice-cold paraformaldelyde. The slides were subsequently incubated with 50 ng/ml of biotin-TN14003 and streptavidin-Rhomdamine, followed by sytox blue. CXCR4—Red, nuclei-blue (sytox blue)
Screening of Small Molecule CXCR4 Antagonists With a Competitive Binding Assay Against Biotin-Labeled TN14003: T140 analogs, including TN14003, bind to the ligand binding site on CXCR4, blocking the CXCR4/SDF-1 interaction, and intervening in the progression of cancer metastasis. The discovery and development of effective, orally available small molecules also remains a major focus for many medicinal chemistry programs. […] Currently, the metal-chelating cyclams and bicyclams represent the sole class of non-peptide molecules that are known to block CXCR4. […] Trent, et al. Lipid Bilayer Simulations of XCXR4 with Inverse Agonists and Weal Partial Agonists. J. Biol. Chem. 2003 Nov. 21; 278(47):47136-44. […] This information was used to create a library of compounds with multiple, basic nitrogens throughout the molecular framework that are structurally different from AMD3100. […]

HUVECs = test: SDF-1 induced endothelial tubular formation; type: cell-based; details: SDF-1 for 18 hours, pretreatment, P<0.001
[2] = system: CXCR4/SDF-1 mediated invasion of MDA-MB-231; test: Matrigel invasion assay with SDF-1 as chemoattractant; type: cell-based; details: 100 nM
Description: Invasive cells penetrate matrigel and end up on the other side of the matrigel.
(§1) A salt form of 6-18-10, WZ811S, was tested in a matrigel invasion assay to measure its ability to inhibit CXCR4/SDF-mediated invasion. […] Thus, Perkin-Elmer's LANCE cAMP assay kit (Cat # AD0262) that was based on time-resolved fluorescence resonance energy transfer (TR-FRET) was tested. […] The results were measured in Perkin-Elmer's Envision multi-label microplate reader (384-wells) with conditions of flash energy area=low, flash energy level=239, counting cycle=1 ms, and ex/em=340 nm/665 nm.

[3] = in vivo; cited from earlier work
CXCR4 [4] = biological target: T1, CXCR4; details: cited from earlier work
[5] = system: CXCR4-mediated cancer metastasis; test: CXCR4-mediated cancer metastasis in vivo; details: TN14003 three times weekly injection; WZ811S more frequent injection schedule
MT4 cells = details: cited from earlier work
HIV = details: cited from earlier work; for SI=CC50/EC50: MT4 cells; for EC50: read-out: concentration required for 50% protection of HIV-induced cytopathogenicity in MT4 cells (EC50)
[6] = From the text: Additionally, a synthetic 14-mer peptide blocked the CXCR4 receptor binding to its ligand SDF-1 and inhibited CXCR4/SDF-1 mediated invasion in vitro and metastasis in vivo with a higher specificity than anti-CXCR4 antibodies (R & D Systems). The anti-invasion and anti-metastasis activity of this peptide correlated well with their inhibitory activity on SDF-1α binding to CXCR4. This antagonist is proven safe by proliferation assay, animal histology, and hemopoietic progenitor cell colony formation.
metastatic 686LN cells [7] = test: Orthotopic SCCHN xenograft model (BLI, CD31 immunostaining, H&E of lungs); type: in vivo, nude mice
From the text: FIG. 2 illustrates that CXCR4 antagonists block tumor malignancy in head and neck cancer. […] Subclones of squamous cell carcinoma of the head and neck (SCCHN) cell line 686LN were generated by passing these cells through several serial metastases in the SCCHN orthotopic animal model. The sub-populations of 686LN cells included one group with elevated metastatic activity and another group with non-metastatic parental cells. […] FIG. 2C is a scanned image of bioluminescence imaging of orthotopic xenografts of head and neck cancer treated with TN 14003. Metastatic 686LN cells (5×10^5) were injected into the neck area of nude mice, and they were divided into two groups, one with TN14003 treatment and the other with control peptide injection. 1 mg/kg of TN14003 was injected three times weekly i.p. TN14003 treatment started after tumors were established (day 8). Primary tumors were immunostained by using anti-CD31 antibody, and the microvessel density was calculated by averaging CD31-positive microvessels of primary tumors from each group (n=4) as illustrated in the bar graph of FIG. 2D. FIG. 2E is a scanned image of representative H & E stainings (original magnification, ×10) from two mice from each group.
The anti-tumor efficacy of the CXCR4 antagonist as also tested in an orthotopic SCCHN animal model. The metastatic cells were stably transfected with the luciferase gene (pGL2-control from Promega) for in vivo tracking purposes. These cells (500,000 cells) were injected into the submandibular subcutaneous tissue to the mylohyoid muscle of the nude mice to create an orthotopic SCCHN xenograft, and the tumor growth was followed using non-invasive Bioluminescence Imaging (BLI). […] The intraperitoneal treatment of TN14003 started 7 days after the tumor injection and lasted for 23 days compared to that of the control peptide. […]

metastatic 686LN cells [8] = test: Experimental head and neck cancer metastasis model (tail vein injection), FDG-PET imaging; type: in vivo; details: metastatic 686LN cells intravenously, nude mice
[9] = system: CXCR4/SDF-1 mediated invasion of MDA-MB-231; details: Liang et al.; cited from earlier work
CXCR4/SDF-1 = test: LANCE cAMP assay (TR-FRET), SDF-1-induced cAMP reduction; type: cell-based; details: SDF-1 0-100 ng/ml
Description: as §1

[10] = biological target: T2, CXCR4 receptor on tumor cells (Homo sapiens, UniProt P61073); test: Immunofluorescence competition with biotin-labeled CXCR4 antagonist and streptavidin-conjugated rhodamine; type: binding; details: labeled via HYNIC and [19F]-FBA
T2 construct: endogenous in cells; probably MDA-MB-231 as in the drug screen
T2 sequence (P61073 whole entry): as above
From the text: FIG. 11A illustrates sub-fractions of a mixture of TN14003-HYNIC and FBA. After the conjugation steps, the mixture was fractionated with increasing acetonitrile concentration in a mobile phase. Mass spectroscopy data confirmed that fraction 6 contained TN14003-HYNIC, while the fraction […] contained 19F-labeled TN14003 (final product). Fractions 6 and 9 are indicated by arrows on the graph.
Using biotin-labeled CXCR4 antagonist along with streptavidin-conjugated rhodamine, the binding efficiency of the fluorine 19-labeled CXCR4 antagonist to CXCR4 receptor on tumor cells was determined and compared to that of the unlabeled CXCR4 antagonist in immunofluorescence as was done for drug screening, described above. Cells incubated with only streptavidin-conjugated rhodamine (negative control) were compared to cells incubated with both the biotin-labeled CXCR4 antagonist and streptavidin-conjugated rhodamine (positive control). When equal amounts of unlabeled CXCR4 antagonist were added into the biotin-labeled antagonist mixture, the red fluorescence decreased due to the competition between biotin-labeled antagonist and unlabeled antagonist. The same amount of red fluorescence decrease was seen when fluorine 19-labeled antagonist was added to the biotin-labeled antagonist mixture (FIG. 11B). […]

## c1cc(CN2CCCNCCNCCCNCC2)ccc1CN1CCCNCCNCCCNCC1 [AMD3100]
CXCR4 [1]
  concentration needed to compete against biotin-labeled TN14003: 10 µM
HUVECs
  SDF-1 induced tubular network formation: could not
[2]
  blocking SDF-1-induced invasion: not as effective as WZ811S
[3]
  clinical safety outcome: withdrawn due to cardiotoxicity
CXCR4 [4]
  functional character at CXCR4: weak partial agonist

## N=C(N)NCCC[C@H](NC(=O)[C@@H]1CSSC[C@H](NC(=O)[C@H](Cc2ccc3ccccc3c2)NC(=O)[C@H](CCCNC(=N)N)NC(=O)[C@@H](N)CCCNC(=N)N)C(=O)N[C@@H](Cc2ccc(O)cc2)C(=O)N[C@@H](CCCNC(N)=O)C(=O)N[C@@H](CCCCN)C(=O)N[C@H](CCCCN)C(=O)N2CCC[C@H]2C(=O)N[C@@H](Cc2ccc(O)cc2)C(=O)N[C@@H](CCCNC(=N)N)C(=O)N[C@@H](CCCNC(N)=O)C(=O)N1)C(N)=O [TN14003, H-Arg-Arg—NaI—Cys-Tyr—Cit-Lys—DLys—Pro-Tyr-Arg—Cit—Cys-Arg—NH2] (H-RR[2Nal]CY[Cit]K[dK]PYR[Cit]CR-NH2; disulfide 4-13)
[5]
  blocking of CXCR4-mediated metastasis in vivo: completely inhibited CXCR4-mediated cancer metastasis in vivo
MT4 cells
  CC50: 410 µM
  cytotoxicity compared to T140: far less cytotoxic
HUVECs
  SDF-1 induced tubular network formation: inhibited tubular network formation
HIV
  SI=CC50/EC50: 680,000
  EC50: 0.0006 µM
[6]
  safety: proven safe
Metastatic 686LN cells [7]; 1 mg/kg, i.p., pre-established tumors
  primary tumor growth (bioluminescence imaging): suppressed even the primary tumor
Metastatic 686LN cells [7]; 1 mg/kg, i.p., primary tumors
  tumor angiogenesis / microvessel density (CD31 immunostaining): significantly blocked tumor angiogenesis at the primary site
Metastatic 686LN cells [7]; orthotopic model, treated vs control group
  lung metastases (H&E): reduction in the metastases
Metastatic 686LN cells [8]
  lung metastasis (FDG-PET, confirmed by histology): prevented lung metastasis of SCCHN; also recorded: inhibited lung metastasis
[9]
  blocking SDF-1-mediated invasion versus anti-CXCR4 antibody: more effectively than an anti-CXCR4 antibody

## H-Arg-Arg—NaI—Cys-Tyr-Arg-Lys—DLys—Pro-Tyr-Arg—Cit—Cys-Arg—OH (H-RR[2Nal]CYRK[dK]PYR[Cit]CR-OH; ends and bridges not checked) [T140, reference compound]
MT4 cells
  CC50: 59 µM
HIV
  SI=CC50/EC50: 17,879
  EC50: 0.0033 µM

## SDF-1: stromal cell-derived factor 1, ligand of CXCR4
CXCR4/SDF-1
  EC80 of absorption increase at 665 nM: 0.03 µg/mL

## ^19F-labeled TN14003: TN14003-HYNIC conjugated with non-radioactive [19F]-fluorobenzaldehyde (RR[2Nal]CY[Cit]K[dK]PYR[Cit]CR-NH2; disulfide 4-13; also: HYNIC linker conjugated as hydrazone with [19F]-fluorobenzaldehyde, attachment site not given here)
[10]
  blocking of binding of biotin-labeled TN14003 to CXCR4 on cell surface by preincubation: completely blocked
[10]; equal amounts
  binding efficiency to CXCR4 relative to unlabeled antagonist (red fluorescence decrease): the same as that of unlabeled (original) antagonist

From patent US20070258893A1, “Compositions and methods for imaging expression of cell surface receptors” (priority 2003, published 2007)
